Literature values as cited in PMC9851200, “Multiparameter phenotypic screening for endogenous TFEB and TFE3 translocation identifies novel chemical series modulating lysosome function” (Autophagy, 2022).

Legend:
Set-up in all cases: method as in original PKIS2 published data
[1] = target: T1, kinases (KINOMEscan panel) (Homo sapiens, UniProt O43318); settings: Published KINOMEscan; ref original PKIS2 published data; cited from earlier work
T1 sequence (O43318 1-606): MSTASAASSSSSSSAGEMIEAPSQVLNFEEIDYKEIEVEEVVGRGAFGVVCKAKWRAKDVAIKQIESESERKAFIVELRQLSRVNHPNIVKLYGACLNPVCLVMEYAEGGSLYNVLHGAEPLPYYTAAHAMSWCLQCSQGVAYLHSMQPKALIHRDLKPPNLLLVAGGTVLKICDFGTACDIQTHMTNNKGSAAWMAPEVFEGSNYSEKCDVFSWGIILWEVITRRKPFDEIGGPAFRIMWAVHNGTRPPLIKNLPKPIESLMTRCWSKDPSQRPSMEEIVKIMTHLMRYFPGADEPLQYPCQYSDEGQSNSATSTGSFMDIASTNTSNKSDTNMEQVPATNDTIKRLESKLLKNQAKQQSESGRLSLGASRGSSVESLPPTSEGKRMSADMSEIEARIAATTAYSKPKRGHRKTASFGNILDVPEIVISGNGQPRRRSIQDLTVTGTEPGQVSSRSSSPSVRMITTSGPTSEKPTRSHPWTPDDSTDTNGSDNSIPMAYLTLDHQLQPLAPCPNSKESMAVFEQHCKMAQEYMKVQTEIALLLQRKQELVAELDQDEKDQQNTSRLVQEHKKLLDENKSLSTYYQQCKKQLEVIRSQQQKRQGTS

[2] = target: kinases (KINOMEscan panel) (Homo sapiens, UniProt Q52WX2); settings: SBK1; Published KINOMEscan; ref original PKIS2 published data; cited from earlier work
Chain of kinases (KINOMEscan panel) (Homo sapiens, UniProt Q52WX2) (Q52WX2 whole entry): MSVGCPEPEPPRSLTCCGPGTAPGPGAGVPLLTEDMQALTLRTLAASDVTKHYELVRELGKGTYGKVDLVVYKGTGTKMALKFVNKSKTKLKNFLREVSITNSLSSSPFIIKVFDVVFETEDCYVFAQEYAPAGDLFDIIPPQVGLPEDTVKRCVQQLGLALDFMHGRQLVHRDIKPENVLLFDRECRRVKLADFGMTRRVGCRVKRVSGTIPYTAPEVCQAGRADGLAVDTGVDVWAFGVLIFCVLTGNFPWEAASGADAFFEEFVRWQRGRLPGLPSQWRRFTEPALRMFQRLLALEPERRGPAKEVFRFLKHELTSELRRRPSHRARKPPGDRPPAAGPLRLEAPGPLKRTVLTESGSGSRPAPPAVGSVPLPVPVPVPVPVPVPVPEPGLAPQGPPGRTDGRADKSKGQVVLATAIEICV

[3] = target: T2, kinases (KINOMEscan panel) (Homo sapiens, UniProt Q59H18); settings: kinase TNNI3K; Published KINOMEscan; ref original PKIS2 published data; cited from earlier work
T2 sequence (Q59H18 1-835): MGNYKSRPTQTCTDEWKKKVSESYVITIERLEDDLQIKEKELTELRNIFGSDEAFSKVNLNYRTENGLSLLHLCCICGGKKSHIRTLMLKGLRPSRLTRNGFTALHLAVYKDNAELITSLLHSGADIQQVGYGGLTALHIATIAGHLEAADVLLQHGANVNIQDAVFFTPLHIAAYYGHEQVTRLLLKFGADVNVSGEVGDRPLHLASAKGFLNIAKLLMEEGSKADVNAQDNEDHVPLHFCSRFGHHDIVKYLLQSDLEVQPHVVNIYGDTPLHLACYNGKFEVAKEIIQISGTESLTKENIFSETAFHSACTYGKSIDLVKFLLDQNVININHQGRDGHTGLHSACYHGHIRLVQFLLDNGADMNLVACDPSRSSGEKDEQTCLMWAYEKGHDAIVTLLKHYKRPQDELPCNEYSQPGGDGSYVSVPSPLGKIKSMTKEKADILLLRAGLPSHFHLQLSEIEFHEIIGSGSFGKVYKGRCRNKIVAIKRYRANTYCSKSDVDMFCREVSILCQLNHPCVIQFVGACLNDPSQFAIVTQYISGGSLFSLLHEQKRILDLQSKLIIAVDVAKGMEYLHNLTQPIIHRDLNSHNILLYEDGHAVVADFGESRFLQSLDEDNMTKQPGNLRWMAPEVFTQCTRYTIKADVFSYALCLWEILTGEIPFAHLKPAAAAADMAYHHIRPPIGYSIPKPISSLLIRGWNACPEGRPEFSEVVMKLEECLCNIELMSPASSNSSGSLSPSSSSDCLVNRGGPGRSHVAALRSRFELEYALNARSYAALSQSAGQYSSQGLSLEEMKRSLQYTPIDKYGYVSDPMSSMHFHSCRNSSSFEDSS

[4] = target: kinases (KINOMEscan panel) (Homo sapiens, UniProt Q5VT25); settings: cited from earlier work
Chain of kinases (KINOMEscan panel) (Homo sapiens, UniProt Q5VT25) (Q5VT25 whole entry): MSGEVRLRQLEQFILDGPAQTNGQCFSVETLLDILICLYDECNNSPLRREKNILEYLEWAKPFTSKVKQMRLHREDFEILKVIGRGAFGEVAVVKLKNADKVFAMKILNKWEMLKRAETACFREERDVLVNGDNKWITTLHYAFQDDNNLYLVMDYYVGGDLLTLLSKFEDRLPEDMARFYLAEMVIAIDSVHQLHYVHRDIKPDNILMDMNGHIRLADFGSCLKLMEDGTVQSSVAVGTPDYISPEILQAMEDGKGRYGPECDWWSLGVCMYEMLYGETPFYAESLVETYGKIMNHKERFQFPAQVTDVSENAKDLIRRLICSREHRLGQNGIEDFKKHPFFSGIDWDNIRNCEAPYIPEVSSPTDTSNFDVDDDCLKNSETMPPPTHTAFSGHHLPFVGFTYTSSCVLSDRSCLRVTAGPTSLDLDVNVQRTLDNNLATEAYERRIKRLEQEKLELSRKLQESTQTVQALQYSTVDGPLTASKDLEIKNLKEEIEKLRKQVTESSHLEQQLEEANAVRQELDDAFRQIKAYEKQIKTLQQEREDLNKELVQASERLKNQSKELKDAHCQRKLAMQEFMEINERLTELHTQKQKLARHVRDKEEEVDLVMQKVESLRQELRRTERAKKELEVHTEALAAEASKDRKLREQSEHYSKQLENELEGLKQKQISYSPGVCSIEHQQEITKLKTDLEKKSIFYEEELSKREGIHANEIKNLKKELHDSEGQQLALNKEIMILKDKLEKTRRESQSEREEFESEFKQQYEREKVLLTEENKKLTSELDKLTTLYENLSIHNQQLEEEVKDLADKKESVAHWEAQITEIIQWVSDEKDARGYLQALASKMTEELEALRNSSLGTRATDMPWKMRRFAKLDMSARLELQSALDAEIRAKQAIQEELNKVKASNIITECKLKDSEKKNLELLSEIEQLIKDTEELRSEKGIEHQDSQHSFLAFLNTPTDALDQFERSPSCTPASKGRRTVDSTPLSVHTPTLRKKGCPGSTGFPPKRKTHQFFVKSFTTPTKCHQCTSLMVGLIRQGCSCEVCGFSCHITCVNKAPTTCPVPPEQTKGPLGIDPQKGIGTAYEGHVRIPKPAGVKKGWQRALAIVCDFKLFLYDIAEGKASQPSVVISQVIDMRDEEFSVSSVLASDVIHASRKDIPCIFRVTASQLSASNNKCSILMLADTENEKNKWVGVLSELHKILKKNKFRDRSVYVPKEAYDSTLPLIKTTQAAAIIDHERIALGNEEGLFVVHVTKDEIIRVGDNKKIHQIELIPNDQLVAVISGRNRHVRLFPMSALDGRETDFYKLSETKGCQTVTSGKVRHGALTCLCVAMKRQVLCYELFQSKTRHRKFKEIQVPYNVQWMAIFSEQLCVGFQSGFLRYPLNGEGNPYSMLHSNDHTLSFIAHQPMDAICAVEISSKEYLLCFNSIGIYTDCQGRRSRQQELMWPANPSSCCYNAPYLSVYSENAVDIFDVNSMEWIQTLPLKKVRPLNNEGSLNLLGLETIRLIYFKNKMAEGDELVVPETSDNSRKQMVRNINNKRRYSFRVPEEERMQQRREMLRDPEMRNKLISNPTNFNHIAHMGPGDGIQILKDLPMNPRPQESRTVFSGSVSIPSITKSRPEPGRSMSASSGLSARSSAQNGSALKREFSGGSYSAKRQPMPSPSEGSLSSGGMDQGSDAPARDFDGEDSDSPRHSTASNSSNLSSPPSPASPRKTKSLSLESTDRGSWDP

[5] = target: T3, kinases (KINOMEscan panel) (Homo sapiens, UniProt Q6P3R8); settings: kinase NEK5; Published KINOMEscan; ref original PKIS2 published data; cited from earlier work
T3 sequence (Q6P3R8 1-708): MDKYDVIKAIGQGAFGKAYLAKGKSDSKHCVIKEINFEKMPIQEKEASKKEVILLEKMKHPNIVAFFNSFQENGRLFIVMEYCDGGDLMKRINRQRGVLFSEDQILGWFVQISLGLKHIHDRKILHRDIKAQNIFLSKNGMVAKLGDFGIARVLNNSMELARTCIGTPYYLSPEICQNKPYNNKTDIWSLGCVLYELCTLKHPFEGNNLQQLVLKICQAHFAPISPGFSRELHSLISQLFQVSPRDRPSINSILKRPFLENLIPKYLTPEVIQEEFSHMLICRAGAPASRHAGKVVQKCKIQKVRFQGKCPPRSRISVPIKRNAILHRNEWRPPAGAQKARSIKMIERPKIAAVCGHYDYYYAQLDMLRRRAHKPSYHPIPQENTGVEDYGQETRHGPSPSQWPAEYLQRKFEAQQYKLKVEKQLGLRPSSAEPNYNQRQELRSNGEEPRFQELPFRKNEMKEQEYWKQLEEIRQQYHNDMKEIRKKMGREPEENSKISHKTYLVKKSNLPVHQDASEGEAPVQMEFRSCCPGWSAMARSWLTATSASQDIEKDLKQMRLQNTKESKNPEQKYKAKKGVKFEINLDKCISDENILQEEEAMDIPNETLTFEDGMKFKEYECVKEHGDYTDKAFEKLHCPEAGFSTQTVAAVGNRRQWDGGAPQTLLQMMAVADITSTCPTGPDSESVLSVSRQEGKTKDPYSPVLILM

## Cc1cccc(-c2nc(Nc3ccncc3)c3ccccc3n2)n1 [NK215]
[1]
  KINOMEscan MAP3K7: 0
[2]
  KINOMEscan SBK1: 0
[3]
  KINOMEscan TNNI3K: 20
[4]
  KINOMEscan CDC42BPA/MRCKA: 47
[5]
  KINOMEscan NEK5: 10
